Patent US20230321042A1, “COMBINATION THERAPY” (PFIZER INC., priority 2020, published 2023)

Tests used:
CDK6/Cyclin D3 = CDK6/Cyclin D3 (Homo sapiens (Human), UniProt Q00534); assay: CDK6/Cyclin D3 mobility shift assay; type: biochemical; conditions: 3.5 mM ATP
Method: The mobility shift assay electrophoretically separates the fluorescently labelled peptides (substrate and phosphorylated product) following the kinase reaction. […] Typical reaction solutions contained 2% DMSO (± inhibitor), 2% glycerol, 10 mM MgCl2, 1 mM DTT, 3.5 mM ATP, 0.005% Tween 20 (TW-20), 3 µM 5-FAM-Dyrktide, 4 nM (active sites) activated CDK6/Cyclin D3 in 40 mM HEPES buffer at pH 7.5.
The reaction was stopped after 95 minutes by the addition of 50 µL of 30 mM EDTA. Ki determinations were made from a plot of the fractional velocity as a function of inhibitor concentration fit to the Morrison equation with the enzyme concentration as a variable.

HCC1428 = assay: 7-day anti-proliferation assay (CyQuant Direct) in HCC1428; type: cell-based; conditions: Homo sapiens, 168 h; HCC1428, 7-day
Method: (§1) Functional effects of test compounds were measured in a 7-day anti-proliferation assay in three ER+ breast cancer cell lines. Cells were seeded in 96-well plates and allowed to adhere overnight prior to compound treatment.

[1] = In vivo study in MCF-7 breast cancer xenograft; conditions: female, mouse, po, BID, MCF7 xenograft model, NSG mice, read-out: maximum tolerated dose level
Method: The MCF7 model was established by implanting passage 0 tumor fragments into recipient mice. To establish the MCF7 donor mice, tumor cells (5 × 10^6 cells/mouse with 50% Cultrex® Basement Membrane Matrix) were subcutaneously implanted in female NSG mice. Once reaching a range of 700 to 800 mm^3, donor tumors were subsequently transplanted into secondary recipient mice for study expansion. […] TGI was assessed on Day 21 post first dose (or Day 42 post tumor fragment implant). […] In the 150 mpk combination group, 50% of mice were found dead or were euthanized by the end of 21 days due to severe anemia.

MCF7 = assay: 7-day anti-proliferation assay (CyQuant Direct) in MCF7; type: cell-based; conditions: Homo sapiens, 168 h; MCF7, 7-day
Method: as §1

T47D = assay: 7-day anti-proliferation assay (CyQuant Direct) in T47D; type: cell-based; conditions: Homo sapiens, 168 h
Method: as §1

CDK4/Cyclin D1 = CDK4/Cyclin D1 (Homo sapiens (Human), UniProt P11802); assay: CDK4/Cyclin D1 mobility shift assay; type: biochemical; conditions: 3.5 mM ATP
CDK4/Cyclin D1, sequence (P11802 whole entry): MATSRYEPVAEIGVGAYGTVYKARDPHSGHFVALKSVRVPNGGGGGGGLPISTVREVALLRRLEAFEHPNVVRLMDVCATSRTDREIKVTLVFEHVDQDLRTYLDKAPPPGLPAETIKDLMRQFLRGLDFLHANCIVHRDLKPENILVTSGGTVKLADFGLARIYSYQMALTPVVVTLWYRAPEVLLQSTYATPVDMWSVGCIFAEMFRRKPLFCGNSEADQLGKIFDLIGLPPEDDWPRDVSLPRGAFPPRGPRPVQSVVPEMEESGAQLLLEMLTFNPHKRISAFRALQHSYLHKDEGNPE
CDK4/Cyclin D1, sequence (P24385 whole entry partner): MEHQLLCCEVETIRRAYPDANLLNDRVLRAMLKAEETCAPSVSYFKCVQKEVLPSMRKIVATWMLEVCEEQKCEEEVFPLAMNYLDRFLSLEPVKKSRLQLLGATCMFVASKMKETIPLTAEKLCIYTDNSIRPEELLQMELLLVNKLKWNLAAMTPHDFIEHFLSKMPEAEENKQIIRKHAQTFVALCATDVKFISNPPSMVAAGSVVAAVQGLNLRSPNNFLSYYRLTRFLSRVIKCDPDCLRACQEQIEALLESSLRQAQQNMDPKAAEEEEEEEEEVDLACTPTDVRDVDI
Method: The purpose CDK4/Cyclin D1 assay is to evaluate the inhibition (% inhibition, Kiapp and Ki values) in the presence of small molecule inhibitors by using a fluorescence based microfluidic mobility shift assay. […] The mobility shift assay electrophoretically separates the fluorescently labelled peptides (substrate and phosphorylated product) following the kinase reaction. Both substrate and product are measured and the ratio of these values is used to generate % conversion of substrate to product by the LabChip EZ Reader. […] The reaction was stopped after 195 minutes by the addition of 50 µL of 30 mM EDTA. Ki determinations were made from a plot of the fractional velocity as a function of inhibitor concentration fit to the Morrison equation with the enzyme concentration as a variable.

CDK6/Cyclin D3, sequence (Q00534 whole entry): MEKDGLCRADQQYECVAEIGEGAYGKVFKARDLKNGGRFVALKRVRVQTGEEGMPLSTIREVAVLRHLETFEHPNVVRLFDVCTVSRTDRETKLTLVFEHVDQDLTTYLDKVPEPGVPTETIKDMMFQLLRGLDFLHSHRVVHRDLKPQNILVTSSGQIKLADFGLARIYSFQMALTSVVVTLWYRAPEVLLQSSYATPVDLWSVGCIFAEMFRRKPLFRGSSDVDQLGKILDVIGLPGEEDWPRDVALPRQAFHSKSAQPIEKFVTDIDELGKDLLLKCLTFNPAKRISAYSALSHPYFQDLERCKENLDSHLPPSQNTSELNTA
CDK6/Cyclin D3, sequence (P30281 whole entry partner): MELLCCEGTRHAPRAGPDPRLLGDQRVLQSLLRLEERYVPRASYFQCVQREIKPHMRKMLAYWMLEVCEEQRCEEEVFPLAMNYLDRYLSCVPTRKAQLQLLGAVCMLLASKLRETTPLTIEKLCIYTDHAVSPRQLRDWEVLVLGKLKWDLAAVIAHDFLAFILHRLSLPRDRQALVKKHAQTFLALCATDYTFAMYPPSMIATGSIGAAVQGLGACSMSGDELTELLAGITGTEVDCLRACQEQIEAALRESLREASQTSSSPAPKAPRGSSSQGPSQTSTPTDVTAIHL

| Ki (CDK6/Cyclin D3) | EC50 (HCC1428) | EC50 (MCF7) | EC50 (T47D) | Ki (CDK4/Cyclin D1) | SMILES | MTD at 21 days [1] |
| --- | --- | --- | --- | --- | --- | --- |
| 254 nM | 790 nM | 190 nM | 220 nM | 107 nM | CC[C@H](C)NC(=O)O[C@@H]1CC[C@H](c2cc(NC(=O)Cc3ccccc3S(C)(=O)=O)n[nH]2)C1 [COMPOUND B, (1R,3S)-3-[3-({[2-(methylsulfonyl)phenyl]acetyl}amino)-1H-pyrazol-5-yl]cyclopentyl (2S)-butan-2-ylcarbamate] |  |
| 215 nM | 710 nM | 336 nM | 443 nM | 149 nM | CCCNC(=O)O[C@@H]1CC[C@H](c2cc(NC(=O)Cc3ccnc(OC)c3)n[nH]2)C1 [COMPOUND C, (1R,3S)-3-(3-{[(2-methoxypyridin-4-yl)acetyl]amino}-1H-pyrazol-5-yl)cyclopentyl propylcarbamate] |  |
|  | 355 nM | 79 nM | 87 nM |  | CC(=O)c1c(C)c2cnc(Nc3ccc(N4CCNCC4)cn3)nc2n(C2CCCC2)c1=O [Palbociclib, 6-acetyl-8-cyclopentyl-5-methyl-2-(5-piperazin-1-yl-pyridin-2-ylamino)-8H-pyrido[2,3-d]pyrimidin-7-one, reference compound] |  |

| SMILES | Ki (CDK6/Cyclin D3) | EC50 (HCC1428) | EC50 (MCF7) | EC50 (T47D) | Ki (CDK4/Cyclin D1) | MTD at 21 days [1] |
| --- | --- | --- | --- | --- | --- | --- |
| COCc1cc(C(=O)Nc2cc([C@H]3CC[C@@H](OC(=O)NC(C)C)C3)[nH]n2)n(C)n1 [COMPOUND A, (1R,3S)-3-[3-({[3-(methoxymethyl)-1-methyl-1H-pyrazol-5-yl]carbonyl}amino)-1H-pyrazol-5-yl]cyclopentyl propan-2-ylcarbamate] | 465 nM | > 1000 nM | 386 nM | 403 nM |  | 150 mg/kg |
